Assays:
[1] = test system: nAChRs on LUHMES neurons; assay: High-throughput Ca2+-imaging of LUHMES neurons (agonist effect); format: cell-based, human
Protocol: For Ca^2+-imaging, the cells were pre-differentiated for 48 h in cell culture flasks, detached and plated at a density of 20,000 cells and 30,000 cells per well on 0.1% PEI-coated 384-well and 96-well plates (Greiner Bio-One), respectively, for the Ca^2+-imaging. The cells were further differentiated for another 7 days. 50% of the medium was exchanged every 2–3 days.
(§1) Ca^2+-imaging was performed using HT Functional Drug Screening System FDSS/µCELL (Hamamatsu Photonics) at nominal 37 °C. The FDSS/µCell system enables the indirect recording of changes of [Ca^2+]i via a Ca^2+-sensitive fluorescent dye. The fluorescence signal of a complete 384-well plate is acquired at once with a high-speed and high-sensitivity digital ImagEM X2 EM-CCD camera (Electron Multiplying Charge-Coupled Device, Hamamatsu Photonics), but with limited spatial resolution. Therefore, the software only determines the mean fluorescence signal of each well rather than of individual cells. For compound application, the integrated dispenser head with 384 pipette tips was used, which can add the test compound to all wells simultaneously. Cells were preincubated with Cal-520 AM (AAT Bioquest) at a concentration of 1 µM for 1 h at 37 °C. For recording, the medium was exchanged by a buffer solution containing [mM]: 135 NaCl, 5 KCl, 0.2 MgCl2, 2.5 CaCl2, 10 HEPES, and 10 D-glucose, pH 7.4. Test compound application was executed after obtaining a 1.5 min baseline recording. Where applicable, a second application was executed 4.5 min after the first application. The total recording never exceeded 8 min.
(§2) For the high-throughput Ca^2+-imaging data obtained in LUHMES cells, an offset correction using the FDSS software (version 3.2) was performed. Afterward, the data were exported and further analyzed with scripts written in R (version 3.6.3) (R Core Team [2020]). The concentration–response curves were fitted using a log-logistic model described by Ritz et al. ([2015]), utilizing the R package drc with its function drm() and LL2.2() with the following equation: f(x) = d/[1 + exp(b(log(x) − ẽ))] (Ritz et al. [2015]). The logarithm of the half-maximal effective concentration (logEC50) between 0 and the upper limit (d), which was set to 1, is represented by ẽ, x denotes the concentration, and b stands for the slope parameter (Ritz et al. [2015]). In cases with normalizations to responses induced by other compounds, the function LL2.3() was used with a variable upper limit (d; Ritz et al. [2015]). The same equation was used to determine the half-maximal inhibitory concentration (logIC50). Then the logEC50 and logIC50 values were converted into the pIC50 and pEC50 values, which are the negative logarithms to base 10.

[2] = test system: nAChRs on LUHMES neurons; assay: Desensitization of nAChR agonist-evoked [Ca2+]i responses of LUHMES neurons; format: cell-based, human
Protocol: as §1, §2
Fig. 4 Desensitizing effects of DN-IMI and IMI-olefin on nAChRs. LUHMES neurons differentiated in 384-well plates were pretreated with various concentrations of DN-IMI or IMI-olefin for 4.5 min before different nAChR agonists were applied and [Ca^2+]i signals were recorded. […] Note the treatment scheme (upper right corner), illustrating the experimental design. […] Note the treatment scheme (upper right corner), illustrating the experimental design. Detailed data on n numbers are found in Table S6

[3] = biological target: T1, human α4β2 (HS) nAChR (Homo sapiens, UniProt P17787+P43681); assay: Two-electrode voltage-clamp recordings, Xenopus laevis oocytes expressing human α4β2 (HS) nAChR; format: cell-based
T1 construct: expressed in transfected cells; host or cells: Xenopus laevis oocytes (EcoCyte Bioscience), mRNA injection, 3 ng α4 and 30 ng β2

[4] = biological target: T2, human α7 nAChR (Homo sapiens, UniProt P36544); assay: Two-electrode voltage-clamp recordings, Xenopus laevis oocytes expressing human α7 nAChR; format: cell-based
T2 construct: expressed in transfected cells; host or cells: Xenopus laevis oocytes, injection of 30 ng mRNA (pCDNA3.1, T7 transcript)

[5] = biological target: T3, human α3β4 nAChR (Homo sapiens, UniProt P30926+P32297); assay: Two-electrode voltage-clamp recordings, Xenopus laevis oocytes expressing human α3β4 nAChR; format: cell-based
T3 construct: expressed in transfected cells; host or cells: Xenopus laevis oocytes, mRNA injection, 0.33 ng α3 and 3.33 ng β4

[6] = test system: Xenopus laevis oocytes without additional receptor expression; assay: Control recordings in oocytes without additional receptor expression; format: cell-based; conditions: DN-IMI 30 µM, injection of water without mRNA, n = 5
Protocol: First, we focused our experiments on the α4β2 receptor, which can assemble in two different stoichiometries. […] For control purposes, we applied DN-IMI (30 µM) to Xenopus laevis oocytes without additional receptor expression (injection of water without mRNA).

[7] = from curve-fitted concentration–response data

T3 sequence (P32297 32-505): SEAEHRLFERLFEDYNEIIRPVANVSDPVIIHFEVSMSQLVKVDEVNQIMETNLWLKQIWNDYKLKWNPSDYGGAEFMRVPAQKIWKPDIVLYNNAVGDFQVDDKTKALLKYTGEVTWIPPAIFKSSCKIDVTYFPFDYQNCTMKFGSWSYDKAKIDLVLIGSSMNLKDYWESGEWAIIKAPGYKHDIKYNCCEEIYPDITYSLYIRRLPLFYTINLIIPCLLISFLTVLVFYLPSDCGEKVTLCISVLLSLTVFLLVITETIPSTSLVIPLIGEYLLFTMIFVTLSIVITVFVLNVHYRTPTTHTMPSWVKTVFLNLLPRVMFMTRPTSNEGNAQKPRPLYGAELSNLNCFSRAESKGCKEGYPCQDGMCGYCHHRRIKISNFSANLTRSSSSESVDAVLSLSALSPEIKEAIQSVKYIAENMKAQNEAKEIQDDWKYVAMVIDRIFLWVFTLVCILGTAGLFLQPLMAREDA
T3 sequence (P30926 22-498): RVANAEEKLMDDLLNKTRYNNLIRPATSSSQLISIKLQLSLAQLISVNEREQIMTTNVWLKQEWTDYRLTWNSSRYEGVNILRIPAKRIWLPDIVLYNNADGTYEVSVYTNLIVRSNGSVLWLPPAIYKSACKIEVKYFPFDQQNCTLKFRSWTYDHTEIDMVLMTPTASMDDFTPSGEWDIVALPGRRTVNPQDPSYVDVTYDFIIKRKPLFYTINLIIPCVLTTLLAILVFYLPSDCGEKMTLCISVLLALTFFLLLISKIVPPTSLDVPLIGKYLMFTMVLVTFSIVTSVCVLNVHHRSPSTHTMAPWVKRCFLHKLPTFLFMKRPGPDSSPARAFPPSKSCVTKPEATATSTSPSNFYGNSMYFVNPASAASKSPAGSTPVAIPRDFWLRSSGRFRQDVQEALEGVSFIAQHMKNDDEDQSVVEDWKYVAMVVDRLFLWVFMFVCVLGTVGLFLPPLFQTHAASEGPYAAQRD
T1 sequence (P43681 27-627): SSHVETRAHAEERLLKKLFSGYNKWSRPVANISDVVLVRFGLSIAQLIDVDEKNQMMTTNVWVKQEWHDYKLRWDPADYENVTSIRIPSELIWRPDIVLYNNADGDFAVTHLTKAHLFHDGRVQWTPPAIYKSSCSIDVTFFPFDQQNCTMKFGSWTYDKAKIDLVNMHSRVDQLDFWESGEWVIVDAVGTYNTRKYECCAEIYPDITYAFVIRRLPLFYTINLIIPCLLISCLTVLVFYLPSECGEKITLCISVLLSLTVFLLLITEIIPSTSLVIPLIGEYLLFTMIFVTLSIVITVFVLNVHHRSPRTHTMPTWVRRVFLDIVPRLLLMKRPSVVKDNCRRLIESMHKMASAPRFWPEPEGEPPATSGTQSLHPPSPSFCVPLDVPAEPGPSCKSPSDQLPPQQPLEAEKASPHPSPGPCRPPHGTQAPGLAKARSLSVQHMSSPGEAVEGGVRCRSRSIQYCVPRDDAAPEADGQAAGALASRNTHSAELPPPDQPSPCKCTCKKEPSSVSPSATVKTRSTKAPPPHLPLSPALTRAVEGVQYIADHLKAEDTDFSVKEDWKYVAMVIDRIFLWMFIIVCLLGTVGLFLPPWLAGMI
T1 sequence (P17787 26-502): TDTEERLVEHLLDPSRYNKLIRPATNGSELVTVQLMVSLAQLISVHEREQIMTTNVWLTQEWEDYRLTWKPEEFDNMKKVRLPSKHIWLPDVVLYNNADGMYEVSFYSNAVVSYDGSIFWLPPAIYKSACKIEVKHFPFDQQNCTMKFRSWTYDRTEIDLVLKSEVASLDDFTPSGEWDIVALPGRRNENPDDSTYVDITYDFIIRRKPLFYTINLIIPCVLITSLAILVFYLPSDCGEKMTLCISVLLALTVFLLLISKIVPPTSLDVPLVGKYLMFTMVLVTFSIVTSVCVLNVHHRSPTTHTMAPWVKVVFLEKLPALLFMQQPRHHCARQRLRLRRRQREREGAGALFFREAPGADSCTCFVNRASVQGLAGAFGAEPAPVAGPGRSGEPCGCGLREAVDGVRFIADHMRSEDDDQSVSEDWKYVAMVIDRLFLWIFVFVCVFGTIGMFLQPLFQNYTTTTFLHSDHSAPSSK
T2 sequence (P36544 23-502): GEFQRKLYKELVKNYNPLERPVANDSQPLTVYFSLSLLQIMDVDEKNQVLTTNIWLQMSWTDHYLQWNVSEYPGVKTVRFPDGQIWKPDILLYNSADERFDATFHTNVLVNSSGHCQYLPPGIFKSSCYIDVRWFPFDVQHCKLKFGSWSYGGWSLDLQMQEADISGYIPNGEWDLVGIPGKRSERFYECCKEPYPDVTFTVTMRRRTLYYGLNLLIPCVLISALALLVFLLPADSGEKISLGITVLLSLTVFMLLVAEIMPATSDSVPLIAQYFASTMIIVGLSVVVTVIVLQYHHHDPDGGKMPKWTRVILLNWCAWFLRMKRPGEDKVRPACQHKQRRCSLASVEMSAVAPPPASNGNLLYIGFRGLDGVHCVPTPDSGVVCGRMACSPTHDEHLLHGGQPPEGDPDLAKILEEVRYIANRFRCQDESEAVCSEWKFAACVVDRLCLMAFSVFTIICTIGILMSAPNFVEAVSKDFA

SMILES: NC1=NCCN1Cc1ccc(Cl)nc1 [DN-IMI, desnitro-imidacloprid]
- pEC50 of [Ca2+]i response (peak amplitude) ([1]; LUHMES neurons, absence of PNU, normalized to the maximal response stimulated by DN-IMI, tested ≤ 100 µM): 6.6
- increase of the maximal amplitude by PNU ([1]; PNU-120596 10 µM): around 40%
- upper asymptote, % of the maximal response ([1]; absence of PNU): 53%
- relative half maximum (turning point) ([1]; absence of PNU, normalized to maximal response to DN-IMI in presence of PNU): 6.8 ± 0.04 -log(M)
- concentrations triggering [Ca2+]i responses ([1]; human neurons): ≥ 100 nM
- BMC for 20% response ([1]; in different systems ([Ca2+]i signaling and single nAChR data)): 100 to 300 nM
- relative half maximum (turning point) ([1]; presence of PNU (10 µM)): 6.5 ± 0.03 -log(M)
- upper asymptote, % of the maximal response ([1]; presence of PNU (10 µM)): 93%
- concentrations inhibiting subsequent activation of nAChRs (desensitization) ([2]; BMR10, LUHMES): ≥ 10 nM
- times more potent than IMI (desensitization) ([2]; compared to effects of IMI in Loser et al. [2021a]): ~ 70 times
- BMC for receptor desensitization ([2]; for a 20% effect): ~ 17 nM
- pIC50 for desensitization of the nicotine-evoked response ([2]; pretreatment […], 3 µM nicotine): 6.9
- EC50 [3]: 501 nM
- fold lower concentrations activating α4β2 (HS) than α7 and α3β4 nAChRs [3]: 20 fold
- higher potency on α4β2 (HS) nAChR than on other subtypes ([3]; comparison of EC25 values, α4β2 (HS) vs α7 and α3β4): > 1 log-step
- absolute EC25 [3, 7]: 0.33 µM
- estimated maximum amplitude, % of nicotine's ([3]; normalized to nicotine (10 µM)): 64%
- EC50 [4]: 31.6 µM
- estimated maximum, % of the maximal response to nicotine [4]: ~ 81%
- higher potency of DN-IMI than nicotine ([4]; EC25 comparison on the receptors other than α4β2 (HS): α7 and α3β4): about 0.6 log-steps
- absolute EC25 [4, 7]: 7.6 µM
- estimated maximum ([4]; normalized to nicotine (1 mM)): ~ 0.81
- Emax ([4]; read-out: estimated maximum, % of the maximal response to nicotine): 83%
- EC50 [5]: 12.6 µM
- absolute EC25 [5, 7]: 5.2 µM
- estimated maximum ([5]; normalized to nicotine (1 mM)): ~ 0.65
- current responses in oocytes without receptor expression [6]: did not detect any current responses

Reference: publication PMC8536575, “Acute effects of the imidacloprid metabolite desnitro-imidacloprid on human nACh receptors relevant for neuronal signaling” (Archives of Toxicology, 2021)
